Tests used:
Type in all cases: ADME, organism-based
[1] = Volume of distribution at steady state in iv or po dosed Sprague-Dawley rat; conditions: in vivo, read-out: Vdss
[2] = Oral bioavailability in Sprague-Dawley rat; conditions: in vivo
[3] = Plasma clearance in iv or po dosed Sprague-Dawley rat
[4] = Half life in iv or po dosed Sprague-Dawley rat; conditions: in vivo

| SMILES | Vd [1] [L/kg] | bioavailability [2] [%] | clearance [3] [mL/min/kg] | half-life [4] [h] |
| --- | --- | --- | --- | --- |
| O=C1[C@@H](NS(=O)(=O)/C=C/c2ccc(Cl)s2)CCN1c1ccc2c(c1)CCCNC2 | 2.6 | 45 | 7.8 | 4.4 |
| O=C1[C@@H](NS(=O)(=O)c2ccc3cc(Cl)ccc3c2)CCN1c1ccc2c(c1)CCCNC2 | 5.5 | 10 | 6.8 | 9.7 |
| O=C1[C@@H](NS(=O)(=O)c2ccc3cc(Cl)ccc3c2)CCN1c1ccc2c(c1)CCNC2 | 3.6 | 24 | 4 | 11 |
| O=C1[C@@H](NS(=O)(=O)/C=C/c2ccc(Cl)s2)CCN1c1cc2c(cc1F)CNCC2 | 0.5 | 43 | 1.4 | 4.9 |
| O=C1[C@@H](NS(=O)(=O)c2ccc3cc(Cl)ccc3c2)CCN1c1cc2c(cc1F)CNCC2 | 1 | 28 | 1.7 | 7.5 |
| CN[C@@H](C)c1ccc(N2CC[C@H](NS(=O)(=O)c3ccc4cc(Cl)ccc4c3)C2=O)c(F)c1 | 2.4 | > 10 | 1.6 | 18 |
| O=C1[C@@H](NS(=O)(=O)/C=C/c2ccc(Cl)s2)CCN1c1ccc2c(c1F)CCNC2 | 0.9 | 68 | 3 | 3.3 |
| O=C1[C@@H](NS(=O)(=O)/C=C/c2ccc(Cl)s2)CCN1c1ccc2c(c1)CCNC2 | 0.9 | – | 3 | 3.5 |

Now from value to compound:

| Vd [1] [L/kg] | bioavailability [2] [%] | clearance [3] [mL/min/kg] | half-life [4] [h] | SMILES |
| --- | --- | --- | --- | --- |
| 2.9 | < 1 | 7.7 | 6.3 | O=C1[C@@H](NS(=O)(=O)c2ccc3c(Cl)c[nH]c3c2)CCN1c1ccc2c(c1)CCNC2 |
| 0.5 | 6 | 1.3 | 6.2 | O=C1[C@@H](NS(=O)(=O)c2ccc3c(Cl)c[nH]c3c2)CCN1c1cc2c(cc1F)CNCC2 |
| 4.1 | < 1 | 12 | 6.1 | O=C1[C@@H](NS(=O)(=O)c2ccc3cc[nH]c3c2)CCN1c1ccc2c(c1)CCNC2 |
| 1.5 | 7 | 2.7 | 7.8 | O=C1[C@@H](NS(=O)(=O)c2ccc3c(Cl)c[nH]c3c2)CCN1c1ccc2c(c1F)CCNC2 |
| 2.4 | – | 2.1 | 6.7 | O=C1[C@@H](NS(=O)(=O)c2ccc3cc(Cl)ccc3c2)CCN1c1ccc2c(c1F)CCNC2 |
| 0.7 | 33 | 26 | 0.4 | CN1CCc2cc(N3CC[C@H](NS(=O)(=O)/C=C/c4ccc(Cl)s4)C3=O)ccc2C1 |

— ChEMBL document CHEMBL1687934, “The discovery of potent and long-acting oral factor Xa inhibitors with tetrahydroisoquinoline and benzazepine P4 motifs” (Bioorg Med Chem Lett, 2011)
